Where “and” joins values, the source holds several entries; their conditions need not be identical. Identical values can stand only once. Entries after “also recorded” stand apart in the source; their conditions may differ.
Columns and labels:
NB4 cells [1] = experiment: NB4 differentiation (NBT reduction, CD11b); assay type: cell-based, human
Method: (§1) Differentiation of AML cell lines was assessed by their ability to produce superoxide as measured by reduction of NBT to formazan and by analysis of expression of CD11b surface marker by flow cytometry. For NBT reduction, each cell suspension was mixed with an equal volume of solution containing 1 mg/ml of NBT (Sigma) and 2.5 μg/ml of TPA for 30 minutes at 37° C. After incubation, cells containing the purple formazan deposits and cells devoid of NBT-reducing activity (white cells) in each sample were determined by counting 200 cells under microscope. Data is expressed as a percentage based on the following ratio: purple cells/purple+white cells. For analysis of cell surface antigens, cells were exposed to phycoerythrin (PE)-conjugated murine anti-human CD11b (DAKO Corp., Carpinteria, Calif.). Analysis of fluorescence was performed on a FACScan flow cytometer (Beckton Dickinson, Mountain View, Calif.).

NB4 cells [2] = experiment: NB4 growth, cell cycle and Annexin V; assay type: cell-based, human; conditions: sodium stibogluconate 250 μg/ml or ATRA 1 μM, 3 days
Method: The NB4 cell line (Lanotte et al., Blood 77, 1080 (1991)) was a gift from Dr. Dan Lindner of the Cleveland Clinic Foundation. […] and U937 cell lines were purchased from American Type Culture Collection (Rockville, Md.). These human […] cell lines were maintained in RPMI 1640 medium supplemented with 10% fetal calf serum (FCS). For cell proliferation assays, cells were cultured at 37° C. in 10% FCS medium containing various amounts of sodium stibogluconate for 6 days. The cell numbers in the cultures were determined by an MTT assay as described previously in Mosmann, J. Immunol. Methods 65, 55 (1983).
The cell cycle was analyzed by flow cytometry after 3 days of culture of NB4 cells in the absence or presence of sodium stibogluconate (250 μg/ml) or ATRA (1 μM). Briefly, the cells were fixed in cold ethanol and incubated for 30 minutes at 4° C. in the dark with a solution of […] propidium iodide, 1 mg/ml RNase and 0.1% NP-40. Analysis was performed immediately after staining using the CELLFIT program (Becton Dickinson, Mountain View, Calif.).
Annexin V staining of exposed membrane phospholipid phosphatidylserine (PS) was done using the Annexin V assay kit (Pharmingen, San Diego, Calif.). Briefly, NB4 cells were cultured in the 10% FCS RPMI 1640 medium in the absence or presence of sodium stibogluconate (250 μg/ml) or ATRA (1 μM) for 3 days. Cells were then washed in PBS twice and stained in binding buffer (10 mM Hepes, pH 7.4; 140 mM NaCl; 2.5 mM CaCl2) containing Annexin V-FITC and propidium iodide for 15 min. The reaction was stopped by adding 10 volumes of binding buffer and analyzed by FACS (Becton Dickinson Facsvantage).

HL-60 cells = experiment: HL-60 differentiation (NBT reduction); assay type: cell-based, human; conditions: day 6
Method: as §1

U937 cells = experiment: U937 differentiation (NBT reduction); assay type: cell-based, human; conditions: day 6
Method: as §1

SHP-1 = target: T1, SHP-1 (Mus musculus, UniProt P29351); experiment: in vitro PTPase assay, GST/SHP-1; assay type: biochemical; conditions: 1-1,000 μg/ml
T1 construct: made in house
T1 sequence (P29351 whole entry): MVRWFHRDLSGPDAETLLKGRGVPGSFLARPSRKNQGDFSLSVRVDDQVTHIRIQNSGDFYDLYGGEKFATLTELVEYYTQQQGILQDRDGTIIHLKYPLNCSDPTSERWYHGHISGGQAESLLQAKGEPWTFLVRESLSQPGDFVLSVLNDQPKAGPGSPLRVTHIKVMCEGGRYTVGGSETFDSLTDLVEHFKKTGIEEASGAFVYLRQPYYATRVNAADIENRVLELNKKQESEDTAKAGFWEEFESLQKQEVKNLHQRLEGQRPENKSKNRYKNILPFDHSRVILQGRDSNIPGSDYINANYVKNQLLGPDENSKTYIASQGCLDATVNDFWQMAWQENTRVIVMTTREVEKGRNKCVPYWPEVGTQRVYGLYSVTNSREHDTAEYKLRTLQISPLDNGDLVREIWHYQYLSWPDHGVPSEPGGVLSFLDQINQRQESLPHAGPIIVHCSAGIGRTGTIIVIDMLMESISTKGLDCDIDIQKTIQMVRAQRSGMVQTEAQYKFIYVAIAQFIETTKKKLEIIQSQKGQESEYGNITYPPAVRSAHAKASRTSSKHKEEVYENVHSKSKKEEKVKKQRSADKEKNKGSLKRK
Method: In vitro PTPase activities were measured using the commercial protein tyrosine phosphatase assay kit (Upstate Biotechnology, Inc. (“UBI”)) following established procedure known to one of skill in the art. […] Briefly, 0.01 μg of GST/PTPase fusion proteins was incubated in 50 μl of Tris buffer (10 mM Tris, pH 7.4) containing different concentrations of inhibitors or chemicals (0-1,000 μg/ml) at 22° C. for 10 minutes, followed by addition of 0.2 mM of the phosphotyrosine peptide and incubation at 22° […] 100 μl of Malachite Green solution was added and incubated for 5 minutes, and the absorbance at 660 nm was measured after 5 minutes.
To assess the reversibility of inhibition of SHP-1 by PTPase inhibitors, GST/SHP-1 fusion protein bound on glutathione beads were pre-incubated in cold Tris buffer or Tris buffer containing the PTPase inhibitors at 4° C. for 30 minutes. The beads were then either subjected to in vitro PTPase assays or washed 3 times in Tris buffer then subjected to in vitro PTPase assays.
Briefly, individual PTPases (0.1 μg/reaction) in 50 μL of PTPase buffer (50 mM Tris, pH 7.4) were incubated at 22° C. for 10 minutes or as indicated in the absence or presence of inhibitory compounds. Substrates (0.2 mM phosphotyrosine peptide) were then added and allowed to react at 22° C. for 18 hrs. PTPase activity of individual reactions was measured by adding 100 μL of malachite green solution (UBI) and then quantifying the amounts of free phosphate cleaved by the PTPase from the peptide substrate by spectrometry (OD660 nm). […] Relative PTPase activities were calculated based on the formula: (PTPase activity in the presence of an inhibitory compound/PTPase activity in the absence of the compound)× 100%. To assess the reversibility of PTPase inhibition, GST fusion proteins of the PTPases bound on glutathione beads (Pharmacia) were pre-incubated with cold Tris buffer (50 mM Tris, pH 7.0) or Tris buffer containing the inhibitor at 4° C. for 30 minutes. The beads were then washed three times in cold Tris buffer or not washed prior to subjecting to in vitro PTPase assays.

PTP1B = target: T2, PTP1B (Homo sapiens, UniProt P18031); experiment: in vitro PTPase assay, GST/PTP1B; assay type: biochemical; conditions: 1-1,000 μg/ml
T2 construct: purchased Upstate Biotechnology Inc. (Lake Placid, N.Y.)
T2 sequence (P18031 whole entry, species assumed): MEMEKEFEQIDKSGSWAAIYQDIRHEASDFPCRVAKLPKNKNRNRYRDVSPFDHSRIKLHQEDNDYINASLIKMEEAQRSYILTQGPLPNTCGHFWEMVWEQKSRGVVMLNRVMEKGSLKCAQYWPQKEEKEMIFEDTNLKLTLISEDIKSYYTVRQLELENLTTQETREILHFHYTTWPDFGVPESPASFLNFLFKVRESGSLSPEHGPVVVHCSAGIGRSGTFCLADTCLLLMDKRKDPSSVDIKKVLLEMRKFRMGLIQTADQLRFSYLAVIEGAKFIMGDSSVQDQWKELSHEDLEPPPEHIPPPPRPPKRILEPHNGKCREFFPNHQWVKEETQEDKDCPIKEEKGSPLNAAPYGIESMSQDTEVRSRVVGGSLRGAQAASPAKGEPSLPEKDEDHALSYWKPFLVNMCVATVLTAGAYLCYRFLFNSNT
Method: In vitro PTPase activities were measured using the commercial protein tyrosine phosphatase assay kit (Upstate Biotechnology, Inc. (“UBI”)) following established procedure known to one of skill in the art. This assay measures the in vitro dephosphorylation of a synthetic phosphotyrosine peptide of the sequence Arg-Arg-Leu-Ile-Glu-Asp-Ala-Gle-T- -yr-Ala-Ala-Arg-Gly, wherein the tyrosine is phosphorylated (SEQ ID NO: 3). Briefly, 0.01 μg of GST/PTPase fusion proteins was incubated in 50 μl of Tris buffer (10 mM Tris, pH 7.4) containing different concentrations of inhibitors or chemicals (0-1,000 μg/ml) at 22° C. for 10 minutes, followed by addition of 0.2 mM of the phosphotyrosine peptide and incubation at 22° C. for 18 hours. 100 μl of Malachite Green solution was added and incubated for 5 minutes, and the absorbance at 660 nm was measured after 5 minutes.
In vitro PTPase assays were used to determine the effects of levamisole (Sigma), pentamidine (American Pharmaceutical Partners, Inc.), and ketoconazole (Sigma) on recombinant PTPases, following established procedures (Pathak et al., J. Immunol. 167, 3391 (2001); Pathak et al., Leukemia 16, 2285 (2002), Yi et al., J. Immunol. 169, 5978 (2002)) using a synthetic phosphotyrosine peptide or DiFMUP as the substrate as detailed above in section I.A.2.

[3] = system: Jak2/Stat5 tyrosine phosphorylation in Baf3 cells; experiment: cellular protein tyrosine phosphorylation in Baf3 cells, Western blotting; assay type: cell-based, murine
Method: For induction of cellular protein phosphorylation by sodium stibogluconate or pervanadate, Baf3 cells were incubated in 0.1% FCS-RPMI 1640 medium at 37° C. for 16 hours. The cells were then washed twice in RPMI 1640 medium and incubated with sodium stibogluconate or pervanandate (0.1 mM) for various times prior to termination by lysing cells in cold lysis buffer (50 mM Tris, pH 7.4; 150 mM NaCl; 0.2 mM Na3VO4; 20 mm NaF; 1% Nonidet P-40; 2 mM PMSF; 20 μg/ml of Aprotinin and 1 mM of sodium molybdic acid). To determine the effect of sodium stibogluconate or potassium antimonyl tartrate on IL-3-induced Jak/Stat phosphorylation, Baf3 cells were deprived of the growth factor for 16 hours in 0.1% FCS RPMI 1640 medium and then incubated with or without sodium stibogluconate or potassium antimonyl tartrate for 10 minutes. IL-3 was next added to the cell suspension and incubated for various times. The Cells were then harvested and lysed in cold lysis buffer at 4° C. for 45 minutes. Total cell lysates (TCL) were separated in SDS-PAGE gels, blotted onto nitrocellulose membrane (Schleicher & Schuell), probed with specific antibodies and detected using an enhanced chemiluminescence kit (ECL, Amersham, Arlington Heights, Ill.).

Baf3 cells = experiment: Baf3 cell proliferation assay; assay type: cell-based, murine
Method: The murine hematopoietic cell line Baf3 was maintained in RPMI 1640 medium supplemented with 10% fetal calf serum (FCS) and murine IL-3 (20 units/ml) as described previously in Damen et al., J. Biol. Chem. 270, 23402 (1995). Human myeloid cell line TF-1 was maintained in RPMI 1640 supplemented with 10% FCS and 40 ng/ml of recombinant human GM-CSF as described previously in Thomassen et al., Clin. Immunol. 95, 85 (2000). For cell proliferation assays, cells were washed in 10% FCS medium twice, resuspended in 10% FCS medium, incubated at 37° C. for 16 hours, and then cultured at 37° C. in 10% FCS medium containing various amounts of cytokines, sodium stibogluconate, or potassium antimonyl tartrate for 3-6 days as indicated. The cell numbers in proliferation assays were determined by an MTT assay or by microscopic cell counting as indicated.

Renca tumors = Renca tumors in Balb/c mice; assay type: in vivo; conditions: two weeks; SSG 12 mg/daily i.m., i.p.
Method: Balb/c and athymic nude Balb/c mice (10 weeks old, female, Taconic Farms, Germantown, N.Y.) were inoculated (s.c.) at the flanks with Renca cells (10^6 cells/site). Four days post-inoculation, the mice were subject to no treatment (Control) or treatment with IL-2 ([…]/daily for 5 days, i.p.), SSG (12 mg/daily, i.m. at hip regions) or the combination of the two agents for two weeks. […] The dose of SSG was similar to the effective daily dose of the drug for the treatment of murine leishmaniasis (Murray, H. W., J. D. Berman, and S. D. Wright. 1988. Immunochemotherapy for intracellular Leishmania donovani infection: gamma interferon plus pentavalent antimony. J Infect Dis 157:973). Tumor volume was measured during the study period and calculated using the formula for a prolate spheroid (V=4/3×a2b) (Lindner, D. J., E. C. Borden, and D. V. Kalvakolanu. 1997. Synergistic antitumor effects of a combination of interferons and retinoic acid on human tumor cells in vitro and in vivo. Clin Cancer Res 3:931). Student's t test was used for assessing the significance of tumor volume differences among differential treatment groups. Mouse viability (daily) and body weights (weekly) were also recorded during the study period. At the end of the study, Renca tumors and major internal organs (heart, kidney, liver, lung and spleen) were harvested for histology and immunohistochemistry analysis.

[4] = system: tumor-infiltrating and spleen immune cells (F4/80+, CD4+, CD8+); experiment: immunohistochemistry of Renca tumors and spleen; assay type: in vivo, Balb/c mice; conditions: Renca tumors, end of treatment
Method: Major internal organs and Renca tumors harvested from mice were fixed in 10% formalin or snap frozen in liquid nitrogen. H & E-stained tissue sections of the fixed samples were prepared and evaluated by microscopy as described previously (Yi, T., M. K. Pathak, D. J. Lindner, M. E. Ketterer, C. Farver, and E. C. Borden. 2002. Anticancer activity of sodium stibogluconate in synergy with IFNs. J Immunol 169:5978). Preparation of frozen tissue sections and immunohistochemistry were performed following established procedures (Joliat, M. J., P. A. Lang, B. L. Lyons, L. Burzenski, M. A. Lynes, T. Yi, J. P. Sundberg, and L. D. Shultz. 2002. Absence of CD5 dramatically reduces progression of pulmonary inflammatory lesions in SHP-1 protein-tyrosine phosphatase-deficient ‘viable motheaten’ mice. J Autoimmun 18:105). The antibodies used for immunohistochemistry were anti-CD4 (rat mAb, clone GK1.5, BD Biosciences, Franklin Lakes, N.J.), anti-CD8 (rat mAb, clone 53-6.7.5, BD Biosciences, Franklin Lakes, N.J.), anti-F4/80 (rat mAb, clone A3-1, Serotec, Oxford, UK) and anti-Asialo GM1 (rabbit polyclonal, Cedarlane, Hornby, Canada). […] Tissue sections of 2 mice/group were evaluated. The number of immune cells was semi-quantified based on the following scheme: […], 0-1 positive cells/40×field; +, 2-5 positive cells/40×field; ++, 6-10 positive cells/40×field, etc.

[5] = sodium stibogluconate 400 μg/ml, GM-CSF 25 ng/ml, ATRA

Compound: CC1=C(/C=C/C(C)=C/C=C/C(C)=C/C(=O)O)C(C)(C)CCC1 [ATRA, All-trans-retinoic acid]
- NB4 differentiation by short exposure versus long term exposure (NB4 cells [1]; ATRA): modest
- cell cycle of NB4 cells (NB4 cells [2]): arrested at GI phase
- NBT-positive (differentiated) HL-60 cells (HL-60 cells; [5]): 90%
- NBT-positive (differentiated) U937 cells (U937 cells; [5]): 72% and 73%

Compound: O.O.O.O=C([O-])[C@H]([O-])[C@@H]([O-])C(=O)[O-].O=C([O-])[C@H]([O-])[C@@H]([O-])C(=O)[O-].[K+].[K+].[Sb+3].[Sb+3] [potassium antimonyl tartrate]
- inhibition of SHP-1 (SHP-1): no detectable inhibition
- inhibition of PTP1B (PTP1B): no detectable inhibition
- IL-3-induced Stat5 phosphorylation [3]: failed to enhance IL-3-induced Stat5 phosphorylation
- IL-3-induced proliferation of Baf3 cells (Baf3 cells): failed to enhance
- toxicity against Baf3 cells (Baf3 cells): marked toxicity

Compound: GM-CSF: recombinant human granulocyte/macrophage colony stimulating factor
- effect on NB-4 cell differentiation (NB4 cells [1]; GM-CSF alone): no detectable effect
- maximal increase of NBT-positive HL-60 cells (HL-60 cells; GM-CSF alone 25 ng/ml): 8-10%
- maximal increase of NBT-positive U937 cells (U937 cells; GM-CSF alone 25 ng/ml): 8-10%

Compound: IL-2: recombinant IL-2 (Proleukin, Chiron)
- Renca tumor growth inhibition (Renca tumors): little effects; also recorded: failed to inhibit Renca tumor growth
- increase of tumor-infiltrating Mφ (F4/80+) [4]: comparable levels

Reference: patent US20070202079A1, “Therapeutic compositions and methods useful in modulating protein tyrosine phosphatases” (priority 2006, published 2007)
